Results published in US20240287138A1, “CYCLIC PEPTIDES FOR INHIBITING TNF RECEPTOR 1 ACTIVITY” (Merck Sharp & Dohme LLC, priority 2023, published 2024).
Read-outs that look alike come from different tables or passages of the source. Numbered stars: 1 amine (or outer) side, 2 acyl side, 3 side chain; on linkers, the order of the positions; unused ones are H or OH. Bridge positions count the residues as written; N and C are the ends. Square brackets hold non-standard residues; d marks the D form. Peptide text beside a SMILES is read from it. Trp(βS-Me,7-OMe) = COc1cccc2c([C@H](C)[C@H](N)C(=O)O)c[nH]c12; Trp(βS-Me) = C[C@@H](c1c[nH]c2ccccc12)[C@H](N)C(=O)O; Phe(2-F,4-COOH) = N[C@@H](Cc1ccc(C(=O)O)cc1F)C(=O)O; Ala(indazol-1-yl) = N[C@@H](Cn1ncc2ccccc21)C(=O)O; Trp(7-CN) = N#Cc1cccc2c(C[C@H](N)C(=O)O)c[nH]c12; Trp(7-Cl) = N[C@@H](Cc1c[nH]c2c(Cl)cccc12)C(=O)O; Phe(4-CONH2) = NC(=O)c1ccc(C[C@H](N)C(=O)O)cc1; Phe(4-COOH) = N[C@@H](Cc1ccc(C(=O)O)cc1)C(=O)O; Phe(4-CH2NH2) = NCc1ccc(C[C@H](N)C(=O)O)cc1; Pip(5R-OH) = O=C(O)[C@@H]1CC[C@@H](O)CN1; X1 = O=C([C@@H]1CC[C@H](N[*:1])C1)[*:2]; 2Nal = N[C@@H](Cc1ccc2ccccc2c1)C(=O)O; 4Pal = N[C@@H](Cc1ccncc1)C(=O)O; NMeE = CN[C@@H](CCC(=O)O)C(=O)O; dHyp = O=C(O)[C@H]1C[C@H](O)CN1; Cit = NC(=O)NCCC[C@H](N)C(=O)O; αMeS = C[C@](N)(CO)C(=O)O; Nle = CCCC[C@H](N)C(=O)O; Sar = CNCC(=O)O

Tests used:
[1] = target: T1, human TNFR1 extracellular domain (ECD) protein (Homo sapiens, UniProt P19438); assay: SPR binding affinity to captured human TNFR1 ECD
T1 construct: HRV 3C protease cleavage site (C); 6His (C, cleaved yes); made in house; host or cells: Sf21 insect cells (baculovirus), secreted
T1 sequence (P19438 30-211): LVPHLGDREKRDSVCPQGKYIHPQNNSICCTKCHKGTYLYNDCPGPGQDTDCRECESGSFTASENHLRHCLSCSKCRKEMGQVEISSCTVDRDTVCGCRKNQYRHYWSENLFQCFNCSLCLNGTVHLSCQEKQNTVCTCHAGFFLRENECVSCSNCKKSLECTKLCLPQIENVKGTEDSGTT
Summary of the method: (§1)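 Biotinylated human TNFR1 or TNFR2 ECD (C-terminal Avi-tag, Sf21-expressed) captured on a regenerable streptavidin chip; peptide analytes flowed in 10 mM HEPES pH 7.4, 150 mM NaCl, 3 mM EDTA, 0.05% P20, 2% DMSO. kon and koff measured; affinity calculated from the rate constants.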

human TNFR2 ECD protein = target: T2, human TNFR2 ECD protein (Homo sapiens, UniProt P20333); assay: SPR off-target binding (selectivity) to human TNFR2 ECD
T2 construct: HRV 3C protease cleavage site (C); 6His (C, cleaved yes); made in house; host or cells: Sf21 insect cells (baculovirus), secreted
T2 sequence (P20333 23-257): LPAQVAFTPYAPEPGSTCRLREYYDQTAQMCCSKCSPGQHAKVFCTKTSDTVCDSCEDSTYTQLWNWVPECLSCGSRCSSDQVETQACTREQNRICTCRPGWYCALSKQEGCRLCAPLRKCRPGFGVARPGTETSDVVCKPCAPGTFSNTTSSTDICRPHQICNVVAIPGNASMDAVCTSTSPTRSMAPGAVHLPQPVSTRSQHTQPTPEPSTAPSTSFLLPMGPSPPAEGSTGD
Summary of the method: as §1

[2] = biotinylated human TNFR1 ECD on streptavidin chip, from kon and koff, read-out: SPR hTNFR1 KD
[3] = biotinylated human TNFR2 ECD on streptavidin chip, read-out: SPR hTNFR2 KD

Compound: CCCC[C@@H]1NC(=O)[C@@H]2CC[C@@H](C2)NC(=O)[C@H]([C@@H](C)c2c[nH]c3c(OC)cccc23)NC(=O)CN(C)C(=O)[C@H](Cc2ccc(C(=O)O)cc2F)NC(=O)[C@H](Cc2ccc(C(N)=O)cc2)NC(=O)[C@](C)(CO)NC(=O)[C@H](Cc2c[nH]c3c(Cl)cccc23)NC(=O)[C@H](Cc2ccc(C(=O)O)cc2F)NC(=O)[C@H](CC(N)=O)NC(=O)[C@H]2C[C@H](O)CN2C(=O)[C@H](Cc2c[nH]c3ccccc23)NC(=O)[C@@H]2CC[C@@H](O)CN2C(=O)[C@H](Cc2ccncc2)NC1=O [SEQ ID NO. 41] (cyclo([4Pal][Pip(5R-OH)]W[dHyp]N[Phe(2-F,4-COOH)][Trp(7-Cl)][αMeS][Phe(4-CONH2)][Phe(2-F,4-COOH)][Sar][Trp(βS-Me,7-OMe)][X1][Nle]))
- Kd [1]: 0.12 nM
- Kd (human TNFR2 ECD protein): > 1000 nM

Compound: C[C@@H](c1c[nH]c2ccccc12)[C@@H]1NC(=O)CN(C)C(=O)[C@H](Cc2ccc(CN)cc2)NC(=O)[C@H](Cc2ccc(C(=O)O)cc2)NC(=O)[C@](C)(CO)NC(=O)[C@H](Cc2ccc3ccccc3c2)NC(=O)[C@H](Cc2ccc(CN)cc2)NC(=O)[C@H](CC(N)=O)NC(=O)[C@H]2CCCN2C(=O)[C@H]([C@@H](C)c2c[nH]c3ccccc23)NC(=O)[C@H](CO)NC(=O)[C@H](Cc2ccc(CN)cc2)NC(=O)[C@H](CCCNC(N)=O)NC(=O)CSC[C@@H](C(N)=O)NC1=O [SEQ ID NO. 206] ({CH2CO}-[Cit][Phe(4-CH2NH2)]S[Trp(βS-Me)][dP]N[Phe(4-CH2NH2)][2Nal][αMeS][Phe(4-COOH)][Phe(4-CH2NH2)][Sar][Trp(βS-Me)]C-NH2; thioether N-14)
- Kd [1, 2]: 3 nM
- Kd (human TNFR2 ECD protein; [3]): > 1000 nM

Compound: CCCC[C@@H]1NC(=O)[C@@H]2CC[C@@H](C2)NC(=O)[C@H]([C@@H](C)c2c[nH]c3c(OC)cccc23)NC(=O)CN(C)C(=O)[C@H](Cc2ccc(CN)cc2)NC(=O)[C@H](Cc2ccc(C(N)=O)cc2)NC(=O)[C@](C)(CO)NC(=O)[C@H](Cc2c[nH]c3c(C#N)cccc23)NC(=O)[C@H](Cc2ccc(C(=O)O)cc2)NC(=O)[C@H](CC(N)=O)NC(=O)[C@H]2C[C@H](O)CN2C(=O)[C@H](Cc2c[nH]c3ccccc23)NC(=O)[C@@H]2CC[C@@H](O)CN2C(=O)[C@H](Cc2ccncc2)NC1=O [SEQ ID NO. 48] (cyclo([4Pal][Pip(5R-OH)]W[dHyp]N[Phe(4-COOH)][Trp(7-CN)][αMeS][Phe(4-CONH2)][Phe(4-CH2NH2)][Sar][Trp(βS-Me,7-OMe)][X1][Nle]))
- Kd [1, 2]: 0.03 nM
- Kd (human TNFR2 ECD protein; [3]): > 1000 nM

Compound: CCCC[C@@H]1NC(=O)[C@@H]2CC[C@@H](C2)NC(=O)[C@H]([C@@H](C)c2c[nH]c3c(OC)cccc23)NC(=O)CN(C)C(=O)[C@H](Cc2ccc(O)cc2)NC(=O)[C@H](Cc2ccc(C(N)=O)cc2)NC(=O)[C@](C)(CO)NC(=O)[C@H](Cc2c[nH]c3c(Cl)cccc23)NC(=O)[C@H](Cc2ccncc2)NC(=O)[C@H](CC(N)=O)NC(=O)[C@H](CCC(=O)O)N(C)C(=O)[C@H](Cn2ncc3ccccc32)NC(=O)[C@@H]2CC[C@@H](O)CN2C(=O)[C@H](Cc2ccncc2)NC1=O [SEQ ID NO. 74] (cyclo([4Pal][Trp(7-Cl)][αMeS][Phe(4-CONH2)]Y[Sar][Trp(βS-Me,7-OMe)][X1][Nle][4Pal][Pip(5R-OH)][Ala(indazol-1-yl)][NMeE]N))
- Kd [1]: 0.12 nM
- Kd (human TNFR2 ECD protein): > 1000 nM

Compound: CCCC[C@@H]1NC(=O)[C@@H]2CC[C@@H](C2)NC(=O)[C@H]([C@@H](C)c2c[nH]c3c(OC)cccc23)NC(=O)CN(C)C(=O)[C@H](Cc2ccc(C(N)=O)cc2)NC(=O)[C@H](Cc2ccc(C(N)=O)cc2)NC(=O)[C@](C)(CO)NC(=O)[C@H](Cc2c[nH]c3c(C#N)cccc23)NC(=O)[C@H](Cc2ccc(C(=O)O)cc2)NC(=O)[C@H](CC(N)=O)NC(=O)[C@H]2C[C@H](O)CN2C(=O)[C@H](Cc2c[nH]c3ccccc23)NC(=O)[C@@H]2CC[C@@H](O)CN2C(=O)[C@H](Cc2ccncc2)NC1=O [SEQ ID NO. 45] (cyclo([4Pal][Pip(5R-OH)]W[dHyp]N[Phe(4-COOH)][Trp(7-CN)][αMeS][Phe(4-CONH2)][Phe(4-CONH2)][Sar][Trp(βS-Me,7-OMe)][X1][Nle]))
- Kd [1, 2]: 0.01 nM
- Kd (human TNFR2 ECD protein; [3]): > 1000 nM
